The results in this text go back to ChEMBL document CHEMBL1152149 (Bioorg Med Chem Lett, 2008).

One data set has as its system Influenza B virus. It is filed as functional, organism-based. The following applies: B/Hong Kong/05/1972, MDCK.
The nature of data set [1]: Cytotoxicity against MDCK cells assessed as detectable alteration of normal cell morphology. In kind it is cell-based, Canis lupus familiaris. The following applies: dog, read-out: Activity.
Data set [2] has as its target Glutamate NMDA receptor. Nature of the data set: Inhibition of NMDA receptor in rat cerebellar granule neurons assessed as NMDA-induced intracellular calcium increase. In kind it is cell-based. Background: Calcium flux is commonly read through the fluorescence of an indicator in the cells.
The target in data set [3] is Glutamate NMDA receptor. Nature of the data set: Inhibition of NMDA receptor in rat cerebellar granule neurons assessed as glutamate-induced intracellular calcium increase. In kind it is cell-based.
A short description of data set [4]: Binding affinity to influenza A virus A/chicken/Germany/27 H7N7 weybridge strain M2 ion channel expressed in Escherichia coli.
The test system of another data set is H2N2 subtype. It is filed as functional, organism-based, Influenza A virus (A/Japan/305/1957(H2N2)). The following applies: Influenza A virus, MDCK.

Structures can show the parent of a compound that is named as a salt. Calls of active or inactive are those of the source. No cut-off for these calls is given here.

A word on the IC50: it is the midpoint of a concentration-inhibition curve. The term Kd denotes the constant that tells how readily two partners part at equilibrium. A higher Kd goes with a looser complex. For orientation: EC50 means the concentration needed to bring the measured effect to its halfway point. The low end stands for higher potency in that assay, the high end for lower potency in that assay.

As for `NC1C2CC3CC(C2)CC1C3` (centres undefined), in the data set with Influenza B virus, the outcome was inactive. The MCC in data set [1] was > 1.33 mM. Besides, the figures for the concentration for half-maximal inhibition (IC50) on Glutamate NMDA receptor [2] and on Glutamate NMDA receptor [3] were 219 µM and > 350 µM, respectively. Further, the Kd in data set [4] came out at 2.36 µM. The compound further came in with an EC50 in the data set with H2N2 subtype of 2.8 µM.
For the compound `CC1(N)C2CC3CC(C2)CC1C3` (centres undefined), the result in the data set on Influenza B virus was inactive. Besides, the MCC in data set [1] is > 1.24 mM. Besides, the half-maximal inhibitory concentration (IC50) at Glutamate NMDA receptor [2] amounted to 64.4 µM; at Glutamate NMDA receptor [3] it was 306 µM. In data set [4], the Kd was determined as 3.6 µM. In addition, a half-maximal response with H2N2 subtype (EC50) required 3.5 µM.
As for `CC1(F)C2CC3CC(C2)CC1C3` (centres undefined), the Kd in data set [4] was > 26 µM.
For `CCCC1(N)C2CC3CC(C2)CC1C3` (centres undefined), the outcome in the data set on Influenza B virus was inactive. Further, in data set [1], the MCC was > 1.09 mM. In addition, the values for the IC50 on Glutamate NMDA receptor [2] and on Glutamate NMDA receptor [3] were 61.3 µM and 258 µM, respectively. This compound displayed a Kd in data set [4] of 8.71 µM. Besides, in the data set on H2N2 subtype, the EC50 is < 1.7 µM.
Regarding `C1CCC2(NC1)C1CC3CC(C1)CC2C3` (centres undefined), the EC50 in the data set with Influenza B virus is 241 µM; with H2N2 subtype, 1 µM. Besides, in data set [1], the MCC was > 1.03 mM. Also, the IC50 was found to be 19 µM at Glutamate NMDA receptor [2] and 239 µM at Glutamate NMDA receptor [3]. Further, the Kd in data set [4] amounted to 0.39 µM.
`NC12CC3CC(CC(C3)C1)C2` [AMANTADINE HYDROCHLORIDE]: the outcome with Influenza B virus was inactive. In data set [1], the MCC is > 1.33 mM. Further, the Kd in data set [4] came to 0.32 µM. Moreover, the response in the data set on H2N2 subtype was half-maximal at 1.1 µM (EC50).
On to `CCC1(N)C2CC3CC(C2)CC1C3` (centres undefined), for which the outcome with Influenza B virus was inactive. The MCC in data set [1] was > 1.16 mM. In data set [4], this compound registered a dissociation constant (Kd) of 6.7 µM. In addition, the concentration for a half-maximal effect (EC50) with H2N2 subtype is < 1.9 µM.
`CC1(O)C2CC3CC(C2)CC1C3` (centres undefined): in the data set on Influenza B virus, the result was inactive. The MCC in data set [1] was > 1.51 mM. For the same compound, the half-inhibitory concentration (IC50) at Glutamate NMDA receptor [2] and at Glutamate NMDA receptor [3] was > 350 µM each time. The compound also gave a concentration for a half-maximal effect (EC50) in the data set with H2N2 subtype of 3 µM.
With `CCCC1(O)C2CC3CC(C2)CC1C3` (centres undefined), the outcome in the data set on Influenza B virus was inactive. For the same compound, the MCC in data set [1] is > 1.29 mM. For the same compound, the half-inhibitory concentration (IC50) at Glutamate NMDA receptor [2] and at Glutamate NMDA receptor [3] was > 350 µM each time. Further, the EC50 in the data set with H2N2 subtype is < 2.1 µM.
Take `C1CNC2(C1)C1CC3CC(C1)CC2C3` (centres undefined): the result in the data set on Influenza B virus was inactive. Besides, in data set [1], the MCC is > 1.1 mM. The IC50 was 50.6 µM on Glutamate NMDA receptor [2] and 314 µM on Glutamate NMDA receptor [3]. Also, the equilibrium dissociation constant (Kd) in data set [4] came to 1.16 µM. Further, the EC50 in the data set with H2N2 subtype amounted to 1.8 µM.
